The record followed here is patent US10842779B2, “Heterocyclic compounds and their use in preventing or treating bacterial infections” (priority 2015, dated 2020).

Holding throughout (test): β-Lactamase inhibitory activity, nitrocefin hydrolysis
Assay type in all cases: biochemical

One assay deals with T1, OXA-15 (Pseudomonas aeruginosa, UniProt Q51574).
T1 construct: made in house; host or cells: E. coli

The target in another assay is T2, OXA-48 (Klebsiella pneumoniae, UniProt Q6XEC0).
T2 construct: made in house; host or cells: E. coli
The note with it: class (D); 30 min pre-incubation.

The next assay addresses T3, CTX-M-15 (Escherichia coli, UniProt Q9EXV5).
T3 construct: made in house; host or cells: E. coli
The note with it: class (A); 30 min pre-incubation.

T1 sequence (Q51574 22-275): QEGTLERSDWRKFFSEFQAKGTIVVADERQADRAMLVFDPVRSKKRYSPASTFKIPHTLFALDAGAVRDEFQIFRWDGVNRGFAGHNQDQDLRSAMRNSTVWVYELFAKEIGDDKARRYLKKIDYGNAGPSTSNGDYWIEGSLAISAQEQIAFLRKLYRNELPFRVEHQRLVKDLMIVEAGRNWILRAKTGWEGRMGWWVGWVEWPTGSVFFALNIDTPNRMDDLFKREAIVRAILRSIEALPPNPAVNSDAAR
T3 sequence (Q9EXV5 29-291, species assumed): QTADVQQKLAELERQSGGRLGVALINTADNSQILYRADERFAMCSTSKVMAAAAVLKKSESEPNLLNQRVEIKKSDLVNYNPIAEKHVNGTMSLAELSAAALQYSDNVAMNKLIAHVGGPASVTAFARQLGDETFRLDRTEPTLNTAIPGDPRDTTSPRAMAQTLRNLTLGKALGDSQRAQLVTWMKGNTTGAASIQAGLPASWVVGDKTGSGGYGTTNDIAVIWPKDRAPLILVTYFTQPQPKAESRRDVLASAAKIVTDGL
T2 sequence (Q6XEC0 23-265, looked up, species assumed): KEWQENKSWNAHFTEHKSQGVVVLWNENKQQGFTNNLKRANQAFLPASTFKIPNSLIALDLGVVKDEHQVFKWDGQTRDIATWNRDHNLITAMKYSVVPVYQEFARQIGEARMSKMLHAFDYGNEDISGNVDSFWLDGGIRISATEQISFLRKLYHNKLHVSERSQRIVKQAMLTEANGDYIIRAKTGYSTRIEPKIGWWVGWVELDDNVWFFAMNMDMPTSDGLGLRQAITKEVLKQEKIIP
Protocol for CTX-M-15: (§1) Enzyme activity was monitored by spectrophotometric measurement of nitrocefin (NCF-TOKU-E, N005) hydrolysis at 485 nm, at room temperature and in assay buffer A: 100 mM Phosphate pH7, 2% glycerol and 0.1 mg/mL Bovine serum albumin (Sigma, B4287). Enzymes were cloned in E. coli expression vector, expressed and purified in house using classical procedures. To a transparent polystyrene plate (Corning, 3628) were added in each well 5 μL DMSO or inhibitor dilutions in DMSO and 80 μL enzyme in buffer A. Plates were immediately read at 485 nm in a microplate spectrophotometer (BioTek, PowerWave HT) to enable background subtraction. After 30 min of pre-incubation at room temperature, 15 μL of NCF (200 μM final) were finally added in each well. Final enzyme concentrations were 0.1 nM (TEM-1), 0.075 nM (SHV-1), 0.4 nM (CTX-M-15), 1 nM (KPC-2), 0.2 nM (P99 AmpC), 0.2 nM (CMY-37), 0.4 nM (AmpC P. aeruginosa), 0.2 nM (OXA-1), 1.2 nM (OXA-11), 0.4 nM (OXA-15) and 0.3 nM (OXA-48). After 20 min incubation at room temperature, plates were once again read at 485 nm. Enzyme activity was obtained by subtracting the final signal by the background, and was converted to enzyme inhibition using non inhibited wells. IC50 curves were fitted to a classical Langmuir equilibrium model with Hill slope using XLFIT (IDBS).
Protocol for OXA-15: as §1
Protocol for OXA-48: as §1

For `O=C(O)C(F)(F)F.O=C1N2C[C@H](c3scnc3[C@H]2c2ncc[nH]2)N1OS(=O)(=O)[O-].[Na+]` (relative stereo) [Example 1, Sodium and 2,2,2-trifluoroacetate [trans-7-(1H-imidazol-3-ium-2-yl)-9-oxo-3-thia-5,8,10-triaza-tricyclo[6.2.1.0^2,6]undeca-2(6),4-dien-10-yl]sulfate], the IC50 came to 270 nM against OXA-15, 8.4 nM on OXA-48 and 2.7 nM on CTX-M-15.
